# According to US8192750B2, “Pharmaceutical composition for the treatment of otomycosis” (priority 2006, dated 2012):
# “Also recorded” adds a separate entry of the source.
# What was measured:
# [1] = solubility of griseofulvin in different solvents; assay type: physicochemical; conditions: mixtures with carriers
# [2] = cited from earlier work
smiles,measurement,setting,value
"COC1=CC(=O)C[C@@H](C)[C@]12Oc1c(Cl)c(OC)cc(OC)c1C2=O [griseofulvin, Griseofulvin]",Solubility of griseofulvin in different solvents,[1],"higher in admixture with high molecular weight substances, such as herbal agents (e.g. tea tree oil), but not in admixtures with saccharides or alcohol; also recorded: higher in mixtures with high molecular weight carriers such as herbal agents, but not with saccharides or alcohol"
same,solubility in water,[2],insoluble in water
